# Measurements as given in patent publication US9409931B1, “3-O-acyl-ingenol analogues” (LEO LABORATORIES LIMITED, priority 2015, dated 2016).
# pEC50: −log10 of the molar value.
# Assays:
# [1] = tested on: PMN's (polymorphonuclear leukocytes); assay: Neutrophil oxidative burst; type: cell-based; conditions: Leukocyte, 40 min; normalized to positive control 5×10^−7 M PEP0005; 40 min incubation at RT; read-out: Neutrophil oxidative burst Rel EC50
# Experimental: PMN's (polymorphonuclear leukocytes) were isolated and purified from fresh buffy coats by sequential sedimentation, density centrifugation and lysis of contaminating erythrocytes. Buffy coats were incubated with 2% methocel for 30-45 min to differentially sediment red blood cells. The leukocyte-rich supernatant was transferred to lymphoprep tubes to remove mononuclear cells by density centrifugation (400×g, 30 min). The pellet was resuspended and any remaining erythrocytes lysed using 0.2% NaCl for 30 sec before restoring isotonicity by the addition of 1.2% NaCl. This step was repeated until the cell pellet appears relatively free of red blood cells. Cells were resuspended in DPBS (Dulbecco's Phosphate Buffered Saline) (w.o. Ca^2+, Mg^2+) and the concentration adjusted to 1.4×10^6 cells/ml in HBSS (Hanks Balanced Salt solution) (w Ca^2+, Mg^2+) containing 0.1% BSA (Bovine Serum Albumin) and 5 mM glucose just prior to assay initiation. Titrated reference and test compounds were pre-mixed with HE (Hydroethidine) (10 μM final assay concentration) before addition to 96-well plates containing 2.5×10^5 cells. Following 40 min incubation at RT, changes in the respiratory burst was estimated by measuring fluorescence at 579 nm (excitation: 485 nm) using an Envision plate reader.
# (§1) Test compound titration curves were fitted to a four-parameter sigmoidal curve after normalizing the effect of the test compound to the effect of the positive control (5×10^−7 M PEP0005). Rel EC50 (relative EC50) denotes the concentration of test compound producing an effect that is midway between the fitted top and bottom.
# [2] = tested on: Primary human epidermal keratinocytes, HeKa; assay: HeKa cytokine release (IL-8); type: cell-based; conditions: normalized to positive control 1.5×10^−7 M PEP0005, 6 h incubation, read-out: HeKa cytokine release (IL-8) Rel EC50
# Experimental: Primary human epidermal keratinocytes, HeKa, were seeded (10.000 cells/well) in 96-well plates the day before the assay. Test compounds were diluted in DMSO (dimethyl sulfoxide) and further diluted in assay medium and pipetted into wells of 96 well-plates containing HeKa cells. The plates were incubated for 6 h at 37° C. in humidified air with 5% CO2. Plates were centrifuged briefly to spin down cells at 4° C., the supernatant was removed and analysed by Meso Scale Discovery (MSD) 4-spot cytokine assay (Pro-inflammatory II Ultra Sensitive kit, MSD, MD, USA). The MSD assay employs a sandwich immunoassay format where capture antibodies are coated in a patterned array on the bottom of the wells of a 4-Spot-Multi-MSD plate. Standard samples were incubated in the MULTI-SPOT plates as well, and the cytokine (IL-8) binds to its corresponding capture antibody spot. The cytokine level was quantitated on a SECTOR™ Imager using a cytokine-specific Detection Antibody labelled with MSD SULFO-TAG™ reagent.
# as §1, with “(1.5×10^−7” for “(5×10^−7”
# [3] = biological target: Human Protein Kinase C delta (PKCδ) (Homo sapiens (Human), UniProt Q05655); assay: PKC δ binding assay; type: biochemical; conditions: kinase activation, γ-33P-ATP, normalized to the effect of DMSO; read-out: PKC-δ binding Rel EC50
# Experimental: On the day at experiment Human Protein Kinase C delta (PKCδ, Millipore cat#14-504) was diluted in 20 mM HEPES, 0.03% Triton X-100. Amount of enzyme in each assay was 7.25 ng (final assay volume is 25 μL). All compounds for testing were diluted to 1 mM in 100% DMSO as an intermediary dilution. The compounds were then diluted further to 50 μM, and then serially diluted in 100% DMSO in semi-logarithmic decrements for 12 points. 0.5 μL of each concentration, in duplicate, was pipetted into a dry 96 well assay plate using a TTP Mosquito. Control and blank wells received 0.5 μL of 100% DMSO instead of compound. The assay was built with the addition of 14.5 μL of assay mixture, containing appropriately diluted enzyme and 20 mM HEPES pH 7.4, 0.03% Triton X-100, 0.05 mg/mL phosphatidylserine, and 50 μM ERMRPRKRQGSVRRRV. The assay was started with the addition of 10 μL ATP containing γ-33P-ATP] (specific activity approx. 500 cpm/pmol), to a final assay concentration of 15 μM. The reaction was allowed to proceed at room temperature for 40 minutes before the addition of 5 μL 3% ortho-phosphoric acid. Blank wells were acid blanks, and had 5 μL 3% ortho-phosphoric acid added before the addition of ATP. 10 μL of the stopped reaction products was transferred to a P30 filtermat which was then washed 4 times in 75 mM ortho-phosphoric acid, and once in methanol before drying. The filter was read by liquid scintillation counting using a Wallac Trilux. Rel EC50 (relative EC50) denotes the concentration of test compound that produces a response half-way between the fitted top and the fitted bottom of the curve when activities are normalized to the effect of DMSO.
# [4] = biological target: Human Protein Kinase C betaII (PKCbII) (Homo sapiens (Human), UniProt P05771); assay: PKCbetaII activity assay; type: biochemical; conditions: γ-33P-ATP, normalized to the effect of DMSO, read-out: PKC-β binding Rel EC50
# Experimental: On the day at experiment Human Protein Kinase C betaII (PKCbII, Millipore cat#14-496) was incubated with 20 mM HEPES pH 7.4, 0.03% Triton X-100, 0.1 mM CaCl2, 0.1 mg/mL phosphatidylserine, 0.1 mg/mL histone H1, 10 mM MgAcetate. Amount of enzyme in each assay was 1.8 ng (final assay volume is 25 μL). The compounds were then diluted to 500 μM, and then serially diluted in 100% DMSO in semi-logarithmic decrements for 12 points. 0.5 μL of each concentration, in duplicate, was pipetted into a dry 96 well assay plate using a TIP Mosquito. Control and blank wells received 0.5 μL of 100% DMSO instead of compound. 14.5 μl kinase in assay buffer was added to each well. The assay was started with the addition of 10 μL ATP containing γ-33P-ATP] (specific activity approx. 500 cpm/pmol), to a final assay concentration of 70 μM. The reaction was allowed to proceed at room temperature for 40 minutes before the addition of 5 μL 3% ortho-phosphoric acid. Blank wells were acid blanks, and had 5 μL 3% ortho-phosphoric acid added before the addition of ATP. 10 μL of the stopped reaction products was transferred to a P30 filtermat which was then washed 4 times in 75 mM ortho-phosphoric acid, and once in methanol before drying. The filter was read by liquid scintillation counting using a Wallac Trilux. Rel EC50 (relative EC50) denotes the concentration of test compound that produces a response half-way between the fitted top and the fitted bottom of the curve when activities are normalized to the effect of DMSO.
# Chain of Human Protein Kinase C delta (PKCδ) (Q05655 whole entry): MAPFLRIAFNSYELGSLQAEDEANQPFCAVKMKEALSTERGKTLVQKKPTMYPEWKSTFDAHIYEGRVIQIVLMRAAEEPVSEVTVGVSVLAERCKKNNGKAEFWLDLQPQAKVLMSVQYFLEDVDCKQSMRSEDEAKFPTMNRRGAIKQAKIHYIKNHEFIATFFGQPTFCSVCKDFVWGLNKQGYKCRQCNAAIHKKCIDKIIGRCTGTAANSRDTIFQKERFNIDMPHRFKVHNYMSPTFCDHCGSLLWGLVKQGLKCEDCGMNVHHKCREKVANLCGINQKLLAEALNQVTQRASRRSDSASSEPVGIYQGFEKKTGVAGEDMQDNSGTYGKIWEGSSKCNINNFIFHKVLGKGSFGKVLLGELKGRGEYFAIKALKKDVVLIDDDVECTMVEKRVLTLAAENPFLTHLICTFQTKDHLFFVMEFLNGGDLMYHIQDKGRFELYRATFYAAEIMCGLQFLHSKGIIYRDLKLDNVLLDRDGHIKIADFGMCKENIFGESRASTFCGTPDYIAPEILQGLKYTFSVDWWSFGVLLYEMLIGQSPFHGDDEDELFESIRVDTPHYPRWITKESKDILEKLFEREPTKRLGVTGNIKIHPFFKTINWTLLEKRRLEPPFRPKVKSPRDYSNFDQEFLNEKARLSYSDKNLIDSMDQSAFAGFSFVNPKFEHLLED
# Chain of Human Protein Kinase C betaII (PKCbII) (P05771 other isoform, or with tags, fused parts or gaps): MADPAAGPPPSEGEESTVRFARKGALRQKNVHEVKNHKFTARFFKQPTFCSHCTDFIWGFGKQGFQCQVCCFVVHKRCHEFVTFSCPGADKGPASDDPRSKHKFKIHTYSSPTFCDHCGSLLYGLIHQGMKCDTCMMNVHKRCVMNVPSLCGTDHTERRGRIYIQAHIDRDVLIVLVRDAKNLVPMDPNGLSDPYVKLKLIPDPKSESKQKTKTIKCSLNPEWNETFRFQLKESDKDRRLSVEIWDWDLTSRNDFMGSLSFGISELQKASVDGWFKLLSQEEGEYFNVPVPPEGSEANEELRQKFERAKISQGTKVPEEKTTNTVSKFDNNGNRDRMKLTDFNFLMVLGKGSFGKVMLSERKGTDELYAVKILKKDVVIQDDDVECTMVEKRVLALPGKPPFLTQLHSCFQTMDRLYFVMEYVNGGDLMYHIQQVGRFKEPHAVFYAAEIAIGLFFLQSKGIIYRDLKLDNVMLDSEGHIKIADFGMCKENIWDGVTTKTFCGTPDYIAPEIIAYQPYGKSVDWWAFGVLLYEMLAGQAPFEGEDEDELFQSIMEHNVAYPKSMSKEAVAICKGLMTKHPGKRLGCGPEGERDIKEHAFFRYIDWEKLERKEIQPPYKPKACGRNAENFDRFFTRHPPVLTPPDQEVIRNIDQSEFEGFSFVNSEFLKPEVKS
Compound,pEC50 [1],pEC50 [2],pEC50 [3],pEC50 [4]
"CC1=C[C@]23C(=O)[C@@H](C=C(CO)C[C@@H]2[C@H]1OC(=O)C1(C)CCCCC1)[C@H]1[C@@H](C[C@H]3C)C1(C)C [Compound 5, 4,5-dideoxyingenol 3-(1-methyl-cyclohexanecarboxylate)]",7.89,6.89,5.95,8.22
"CC1=C[C@]23C(=O)[C@@H](C=C(CO)C[C@]2(O)[C@H]1OC(=O)C1(C)CCCCC1)[C@H]1[C@@H](C[C@H]3C)C1(C)C [Compound 6, 5-deoxyingenol 3-(1-methyl-cyclohexanecarboxylate)]",8.15,7.59,7.10,9.10
"CC1=C[C@]23C(=O)[C@@H](C=C(CO)[C@@H](O)[C@@H]2[C@H]1OC(=O)C1(C)CCCCC1)[C@H]1[C@@H](C[C@H]3C)C1(C)C [Compound 7, 4-deoxyingenol 3-(1-methyl-cyclohexanecarboxylate)]",8.05,7.46,6.81,9.70
"CC1=C[C@@]23CC[C@@H]4[C@H]([C@H](C=C(CO)[C@@H](O)[C@]2(O)[C@H]1OC(=O)C1(C)CCCCC1)C3=O)C4(C)C [Compound 8, 11-desmethyl-ingenol 3-(1-methyl-cyclohexanecarboxylate)]",8.40,8.40,8.15,10.00
